Measured values: patent publication US20230183243A1, “HETEROARYL DERIVATIVES AND PHARMACEUTICAL COMPOSITION COMPRISING SAME AS ACTIVE INGREDIENT” (VORONOI INC., priority 2019, published 2023)

What was measured:
[1] = target: T1, TYK2(JH1domain-catalytic) (Homo sapiens, UniProt P29597); experiment: ScanMAX Kinase panel (DiscoverX); type: binding
T1 construct: TYK2(JH1domain-; purchased DiscoverX Corp. (ScanMAX Kinase panel, commissioned)
Procedure: (§1) Further, to evaluate the inhibitory activity of the compound according to the present invention against more enzymes, an experiment was performed as follows. Specifically, the enzyme (kinase) selectivity of the compound of Example 64 selected from the Example compounds of the present invention was measured by commissioning DiscoverX Corp., and an experiment was performed using a panel for ScanMAX™ Kinase analysis. In this case, the concentration of a drug treated with the enzyme was set at 1 μM in DMSO, and the percent control (% control) were defined in the same manner as in the following Expression 1.
(§2) (Example compound−Positive control)/(Negative control−Positive control)×100 [Expression 1]
(§3) Wherein the positive control represents a compound having a percent control of 0%, and the negative control represents a compound having a percent control of 100% in DMSO. For the enzyme selectivity of the present invention, the compound was also judged to have activity against the corresponding enzyme when the percent control for each of the enzymes was <35% (i.e., less than 35%).

YSK4 = target: T2, YSK4 (Homo sapiens, UniProt Q56UN5); experiment: ScanMAX Kinase panel (DiscoverX); type: binding; settings: read-out: % Cont @ 1 μM
T2 construct: purchased DiscoverX Corp. (ScanMAX Kinase panel, commissioned)
Procedure: as §1, §2, §3

FLT3(ITD, D835V) = experiment: ScanMAX Kinase panel (DiscoverX); type: binding
Procedure: as §1, §2, §3

AAK1 = target: T3, AAK1 (Homo sapiens, UniProt Q2M2I8); experiment: ScanMAX Kinase panel (DiscoverX); type: binding; settings: read-out: % Cont @ 1 μM
T3 construct: purchased DiscoverX Corp. ScanMAX Kinase panel
Procedure: as §1, §2, §3

GAK = target: T4, GAK (Homo sapiens, UniProt O14976); experiment: ScanMAX Kinase panel (DiscoverX); type: binding; settings: read-out: % Cont @ 1 μM
T4 construct: purchased DiscoverX Corp. ScanMAX Kinase panel
Procedure: as §1, §2, §3

MEK4 = target: T5, MEK4 (Homo sapiens, UniProt P45985); experiment: ScanMAX Kinase panel (DiscoverX); type: binding; settings: read-out: % Cont @ 1 μM
T5 construct: purchased DiscoverX Corp. ScanMAX Kinase panel
Procedure: as §1, §2, §3

CAMKK2 = target: T6, CAMKK2 (Homo sapiens, UniProt Q96RR4); experiment: ScanMAX Kinase panel (DiscoverX); type: binding; settings: read-out: % Cont @ 1 μM
T6 construct: purchased DiscoverX Corp. ScanMAX Kinase panel
Procedure: as §1, §2, §3

FLT3(ITD) = experiment: ScanMAX Kinase panel (DiscoverX); type: binding
Procedure: as §1, §2, §3

CSNK1D = target: T7, CSNK1D (Homo sapiens, UniProt P48730); experiment: ScanMAX Kinase panel (DiscoverX); type: binding; settings: read-out: % Cont @ 1 μM
T7 construct: purchased DiscoverX Corp. ScanMAX Kinase panel
Procedure: as §1, §2, §3

PRKCE = target: T8, PRKCE (Homo sapiens, UniProt Q02156); experiment: ScanMAX Kinase panel (DiscoverX); type: binding; settings: read-out: % Cont @ 1 μM
T8 construct: purchased DiscoverX Corp. (ScanMAX Kinase panel, commissioned)
Procedure: as §1, §2, §3

TRKB = target: T9, TRKB (Homo sapiens, UniProt Q16620); experiment: ScanMAX Kinase panel (DiscoverX); type: binding; settings: read-out: % Cont @ 1 μM
T9 construct: purchased DiscoverX Corp. ScanMAX Kinase panel
Procedure: as §1, §2, §3

ULK1 = target: T10, ULK1 (Homo sapiens, UniProt O75385); experiment: ScanMAX Kinase panel (DiscoverX); type: binding
T10 construct: purchased DiscoverX Corp. ScanMAX Kinase panel
Procedure: as §1, §2, §3

CAMK2D = target: T11, CAMK2D (Homo sapiens, UniProt Q13557); experiment: ScanMAX Kinase panel (DiscoverX); type: binding; settings: read-out: % Cont @ 1 μM
T11 construct: purchased DiscoverX Corp. ScanMAX Kinase panel
Procedure: as §1, §2, §3

PKN2 = target: T12, PKN2 (Homo sapiens, UniProt Q16513); experiment: ScanMAX Kinase panel (DiscoverX); type: binding; settings: read-out: % Cont @ 1 μM
T12 construct: purchased DiscoverX Corp. ScanMAX Kinase panel
Procedure: as §1, §2, §3

RIOK1 = target: T13, RIOK1 (Homo sapiens, UniProt Q9BRS2); experiment: ScanMAX Kinase panel (DiscoverX); type: binding; settings: read-out: % Cont @ 1 μM
T13 construct: purchased DiscoverX Corp. ScanMAX Kinase panel
Procedure: as §1, §2, §3

CSNK1E = target: T14, CSNK1E (Homo sapiens, UniProt P49674); experiment: ScanMAX Kinase panel (DiscoverX); type: binding; settings: read-out: % Cont @ 1 μM
T14 construct: purchased DiscoverX Corp. ScanMAX Kinase panel
Procedure: as §1, §2, §3

[2] = target: T15, RSK2(Kin.Dom.1-N-terminal) (Homo sapiens, UniProt P51812); experiment: ScanMAX Kinase panel (DiscoverX); type: binding; settings: read-out: % Cont @ 1 μM
T15 construct: RSK2(Kin.Dom.1-; purchased DiscoverX Corp. (ScanMAX Kinase panel, commissioned)
Procedure: as §1, §2, §3

[3] = target: T16, TYK2(JH2domain-pseudokinase) (Homo sapiens, UniProt P29597); experiment: ScanMAX Kinase panel (DiscoverX); type: binding
T16 construct: TYK2(JH2domain-; purchased DiscoverX Corp. ScanMAX Kinase panel
Procedure: as §1, §2, §3

SBK1 = target: T17, SBK1 (Homo sapiens, UniProt Q52WX2); experiment: ScanMAX Kinase panel (DiscoverX); type: binding; settings: read-out: % Cont @ 1 μM
T17 construct: purchased DiscoverX Corp. ScanMAX Kinase panel
Procedure: as §1, §2, §3

CAMKK1 = target: T18, CAMKK1 (Homo sapiens, UniProt Q8N5S9); experiment: ScanMAX Kinase panel (DiscoverX); type: binding; settings: read-out: % Cont @ 1 μM
T18 construct: purchased DiscoverX Corp. (ScanMAX Kinase panel, commissioned)
Procedure: as §1, §2, §3

[4] = target: T19, RSK4(Kin.Dom.1-N-terminal) (Homo sapiens, UniProt Q9UK32); experiment: ScanMAX Kinase panel (DiscoverX); type: binding
T19 construct: RSK4(Kin.Dom.1); purchased DiscoverX Corp. ScanMAX Kinase panel
Procedure: as §1, §2, §3

DYRK1B = target: T20, DYRK1B (Homo sapiens, UniProt Q9Y463); experiment: ScanMAX Kinase panel (DiscoverX); type: binding; settings: read-out: % Cont @ 1 μM
T20 construct: purchased DiscoverX Corp. ScanMAX Kinase panel
Procedure: as §1, §2, §3

BxPC3 = experiment: Cell proliferation inhibition, carcinomas other than TNBC; type: cell-based; settings: Homo sapiens, BXPC-3
Procedure: To check an ability to inhibit the growth of (MDA-MB-231) cells in two triple-negative breast cancer cell lines, a test was performed, as follows. Cells were seeded in 180 μL of a culture broth at a density of 2,000 to 3,000 cells/well in a white clear bottom 96-well plate (Corning) according to the growth ability of each cell, and then cultured for 24 hours under conditions of 5% CO2 and 37° C. Thereafter, the compound was prepared by diluting a 10 mM stock solution three-fold with 100% DMSO at a total of 12 concentrations so that a peak concentration of the compound was in a range of 10 mM to 0.05 μM, and the diluted compound was then diluted in each cell culture medium so that a final concentration of the compound was in a range of 100 μM to 0.5 nM. 20 μL of a diluted solution diluted with a medium was added to the cell solution in which cells were seeded in the 96-well plate on the previous day so that a final concentration of the diluted solution was in a range of 10 μM to 0.05 nM. Each of the cells was cultured for 5 days. To check cell viability, a mixture provided in a CellTiter-Glo® Luminescent Cell Viability Assay Kit (Promega) was added to each of the cultured cell media, and cultured for another 10 minutes under a condition of 37° C. Then, a degree of luminescence (fluorescence) was measured. A degree of inhibition of the cell growth according to the treatment concentration of each of the compounds was calculated based on the fluorescence of the solvent control cells which were not treated with the compound. In this case, the concentration of each of the compounds inhibiting 50% of the cell growth was determined to be a GI50 (nM) value, and calculated using Prism (Version 7.01; GraphPad) software.
Next, the activities of the Example compounds against various types of carcinomas other than the TNBC were evaluated in a similar manner as described above. In the following table, the following active value range (GI50 (nM)) was used to evaluate cell proliferation inhibitory activity.

T9 sequence (Q16620 32-822): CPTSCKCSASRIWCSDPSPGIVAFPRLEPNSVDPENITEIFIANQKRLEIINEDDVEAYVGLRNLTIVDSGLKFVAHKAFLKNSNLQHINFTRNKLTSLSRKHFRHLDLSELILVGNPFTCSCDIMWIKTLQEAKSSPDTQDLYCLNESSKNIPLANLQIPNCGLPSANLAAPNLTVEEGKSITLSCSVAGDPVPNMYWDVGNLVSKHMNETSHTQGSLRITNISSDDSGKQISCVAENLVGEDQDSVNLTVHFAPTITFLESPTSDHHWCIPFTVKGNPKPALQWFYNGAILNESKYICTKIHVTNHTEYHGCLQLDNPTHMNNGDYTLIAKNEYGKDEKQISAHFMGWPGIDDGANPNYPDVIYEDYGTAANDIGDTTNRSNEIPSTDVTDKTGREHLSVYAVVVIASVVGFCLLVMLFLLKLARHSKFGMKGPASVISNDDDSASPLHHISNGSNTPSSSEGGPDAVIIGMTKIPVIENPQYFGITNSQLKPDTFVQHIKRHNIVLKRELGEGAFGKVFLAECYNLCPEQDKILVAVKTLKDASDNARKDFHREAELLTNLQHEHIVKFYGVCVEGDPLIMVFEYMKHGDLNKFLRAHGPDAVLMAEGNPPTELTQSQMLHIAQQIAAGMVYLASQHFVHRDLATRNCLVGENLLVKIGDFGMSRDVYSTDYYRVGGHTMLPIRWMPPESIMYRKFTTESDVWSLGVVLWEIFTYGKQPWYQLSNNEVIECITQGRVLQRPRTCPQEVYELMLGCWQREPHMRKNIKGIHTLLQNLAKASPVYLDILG
T20 sequence (Q9Y463 whole entry): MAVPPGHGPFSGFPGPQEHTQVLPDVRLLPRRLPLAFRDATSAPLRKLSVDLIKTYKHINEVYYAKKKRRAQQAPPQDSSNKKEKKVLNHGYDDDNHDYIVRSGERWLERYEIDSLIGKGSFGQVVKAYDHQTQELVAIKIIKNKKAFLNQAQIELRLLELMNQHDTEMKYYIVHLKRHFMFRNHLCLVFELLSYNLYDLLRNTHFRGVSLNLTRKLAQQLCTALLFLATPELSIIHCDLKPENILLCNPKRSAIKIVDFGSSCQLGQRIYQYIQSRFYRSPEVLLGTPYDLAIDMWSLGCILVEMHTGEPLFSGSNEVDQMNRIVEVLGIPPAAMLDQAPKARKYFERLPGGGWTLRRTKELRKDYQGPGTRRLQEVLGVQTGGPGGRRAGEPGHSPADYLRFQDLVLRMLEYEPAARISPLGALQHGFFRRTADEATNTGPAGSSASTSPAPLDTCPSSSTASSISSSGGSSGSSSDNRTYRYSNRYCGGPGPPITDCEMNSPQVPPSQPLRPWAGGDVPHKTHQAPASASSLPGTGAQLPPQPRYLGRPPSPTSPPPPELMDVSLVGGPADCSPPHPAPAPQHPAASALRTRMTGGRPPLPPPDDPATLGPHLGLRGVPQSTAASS
T18 sequence (Q8N5S9 whole entry): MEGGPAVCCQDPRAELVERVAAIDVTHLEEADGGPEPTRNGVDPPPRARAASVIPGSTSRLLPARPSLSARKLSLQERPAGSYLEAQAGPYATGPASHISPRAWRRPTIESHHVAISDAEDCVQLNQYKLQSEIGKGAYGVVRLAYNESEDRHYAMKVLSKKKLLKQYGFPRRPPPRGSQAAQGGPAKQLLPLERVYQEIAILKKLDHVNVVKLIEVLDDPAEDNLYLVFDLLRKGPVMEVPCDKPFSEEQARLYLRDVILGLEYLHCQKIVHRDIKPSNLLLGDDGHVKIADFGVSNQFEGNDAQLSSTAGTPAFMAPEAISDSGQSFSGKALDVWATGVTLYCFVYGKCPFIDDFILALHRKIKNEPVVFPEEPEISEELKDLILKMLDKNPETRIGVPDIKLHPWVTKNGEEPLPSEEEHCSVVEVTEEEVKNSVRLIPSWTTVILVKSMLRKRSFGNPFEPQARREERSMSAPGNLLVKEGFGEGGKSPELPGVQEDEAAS
T12 sequence (Q16513 whole entry): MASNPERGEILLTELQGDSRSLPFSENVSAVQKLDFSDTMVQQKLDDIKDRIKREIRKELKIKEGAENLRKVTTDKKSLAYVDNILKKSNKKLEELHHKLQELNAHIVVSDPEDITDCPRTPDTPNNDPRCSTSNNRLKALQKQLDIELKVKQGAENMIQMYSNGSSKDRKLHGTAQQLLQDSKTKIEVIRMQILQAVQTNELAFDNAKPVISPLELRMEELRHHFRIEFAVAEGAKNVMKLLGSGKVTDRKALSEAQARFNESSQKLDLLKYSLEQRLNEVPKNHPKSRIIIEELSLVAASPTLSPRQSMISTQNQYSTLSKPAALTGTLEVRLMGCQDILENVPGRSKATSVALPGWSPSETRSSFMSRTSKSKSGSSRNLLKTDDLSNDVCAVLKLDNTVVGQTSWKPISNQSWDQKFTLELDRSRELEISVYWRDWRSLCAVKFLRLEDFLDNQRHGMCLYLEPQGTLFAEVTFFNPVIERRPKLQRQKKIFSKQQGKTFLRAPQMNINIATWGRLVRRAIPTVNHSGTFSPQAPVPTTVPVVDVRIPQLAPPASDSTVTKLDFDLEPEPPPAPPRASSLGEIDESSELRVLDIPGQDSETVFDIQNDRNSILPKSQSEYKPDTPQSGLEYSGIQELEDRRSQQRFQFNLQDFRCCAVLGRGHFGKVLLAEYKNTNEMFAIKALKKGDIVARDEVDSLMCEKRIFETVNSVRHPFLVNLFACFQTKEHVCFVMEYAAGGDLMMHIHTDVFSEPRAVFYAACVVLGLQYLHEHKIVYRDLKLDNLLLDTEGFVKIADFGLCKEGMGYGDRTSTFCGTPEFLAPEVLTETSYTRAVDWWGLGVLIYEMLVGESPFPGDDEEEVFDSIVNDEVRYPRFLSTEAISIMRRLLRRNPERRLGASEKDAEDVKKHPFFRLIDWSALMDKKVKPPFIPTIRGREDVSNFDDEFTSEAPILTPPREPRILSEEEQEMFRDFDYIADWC
T2 sequence (Q56UN5 whole entry): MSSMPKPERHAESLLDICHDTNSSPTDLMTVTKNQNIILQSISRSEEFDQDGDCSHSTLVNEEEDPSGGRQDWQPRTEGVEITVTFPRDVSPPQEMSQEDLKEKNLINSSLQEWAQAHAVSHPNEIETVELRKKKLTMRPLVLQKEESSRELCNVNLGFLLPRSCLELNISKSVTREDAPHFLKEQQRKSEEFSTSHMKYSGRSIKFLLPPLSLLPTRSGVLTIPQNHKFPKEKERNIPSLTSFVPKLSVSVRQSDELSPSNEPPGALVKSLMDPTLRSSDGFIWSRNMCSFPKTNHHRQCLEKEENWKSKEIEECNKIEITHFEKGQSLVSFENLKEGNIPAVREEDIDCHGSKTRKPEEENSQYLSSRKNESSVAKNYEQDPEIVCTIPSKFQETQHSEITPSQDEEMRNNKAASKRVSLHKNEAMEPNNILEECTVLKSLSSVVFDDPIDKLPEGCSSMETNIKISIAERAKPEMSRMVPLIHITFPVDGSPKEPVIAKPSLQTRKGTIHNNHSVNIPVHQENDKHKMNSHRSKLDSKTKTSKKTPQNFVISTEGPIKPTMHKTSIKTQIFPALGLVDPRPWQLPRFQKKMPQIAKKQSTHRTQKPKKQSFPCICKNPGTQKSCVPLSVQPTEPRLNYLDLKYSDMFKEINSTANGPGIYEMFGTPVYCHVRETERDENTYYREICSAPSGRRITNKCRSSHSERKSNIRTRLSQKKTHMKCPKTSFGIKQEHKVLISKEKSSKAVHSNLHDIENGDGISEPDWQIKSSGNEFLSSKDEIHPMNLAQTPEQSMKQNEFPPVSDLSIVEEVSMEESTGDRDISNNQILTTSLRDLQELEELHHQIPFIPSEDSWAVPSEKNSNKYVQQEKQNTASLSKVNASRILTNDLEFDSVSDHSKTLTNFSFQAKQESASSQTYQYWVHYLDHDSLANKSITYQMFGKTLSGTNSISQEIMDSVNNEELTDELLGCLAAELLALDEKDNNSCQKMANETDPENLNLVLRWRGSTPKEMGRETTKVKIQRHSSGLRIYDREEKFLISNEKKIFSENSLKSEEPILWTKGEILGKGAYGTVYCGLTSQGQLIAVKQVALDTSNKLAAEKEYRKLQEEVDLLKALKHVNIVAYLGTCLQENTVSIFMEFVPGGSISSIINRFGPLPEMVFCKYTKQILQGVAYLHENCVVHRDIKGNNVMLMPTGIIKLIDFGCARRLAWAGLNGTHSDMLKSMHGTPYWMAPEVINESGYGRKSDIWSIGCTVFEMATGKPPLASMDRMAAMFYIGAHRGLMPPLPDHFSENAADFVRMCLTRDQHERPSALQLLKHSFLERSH
T13 sequence (Q9BRS2 whole entry): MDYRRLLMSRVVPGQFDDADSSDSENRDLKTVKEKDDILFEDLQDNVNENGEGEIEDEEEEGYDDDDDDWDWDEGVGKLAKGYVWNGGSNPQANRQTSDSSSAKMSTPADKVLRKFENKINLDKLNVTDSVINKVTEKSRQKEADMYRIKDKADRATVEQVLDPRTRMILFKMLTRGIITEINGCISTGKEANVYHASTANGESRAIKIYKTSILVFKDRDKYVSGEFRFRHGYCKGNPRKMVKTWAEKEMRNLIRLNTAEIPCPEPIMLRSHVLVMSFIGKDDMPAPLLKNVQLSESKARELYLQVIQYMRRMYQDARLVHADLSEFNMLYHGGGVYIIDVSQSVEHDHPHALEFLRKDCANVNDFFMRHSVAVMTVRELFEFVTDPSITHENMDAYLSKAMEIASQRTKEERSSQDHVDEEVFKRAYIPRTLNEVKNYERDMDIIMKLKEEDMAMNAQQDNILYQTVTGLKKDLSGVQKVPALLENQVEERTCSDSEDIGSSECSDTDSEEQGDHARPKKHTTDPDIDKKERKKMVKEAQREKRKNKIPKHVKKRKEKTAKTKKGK
T15 sequence (P51812 68-327 limits assumed): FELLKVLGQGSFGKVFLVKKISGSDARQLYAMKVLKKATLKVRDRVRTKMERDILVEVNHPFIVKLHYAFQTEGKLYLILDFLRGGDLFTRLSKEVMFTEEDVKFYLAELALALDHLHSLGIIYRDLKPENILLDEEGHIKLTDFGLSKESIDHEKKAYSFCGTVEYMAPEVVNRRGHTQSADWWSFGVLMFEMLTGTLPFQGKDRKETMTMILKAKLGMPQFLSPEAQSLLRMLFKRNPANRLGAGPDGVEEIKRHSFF

% Cont @ 1 μM [1]: 1.7%
percent of control binding at 1 µM (YSK4): 0.3%
% Cont @ 1 μM (FLT3(ITD, D835V)): 1.2%
remaining binding at 1 µM (AAK1): 4.4%
remaining binding at 1 µM (GAK): 4.4%
remaining binding at 1 µM (MEK4): 27%
remaining binding at 1 µM (CAMKK2): 2.2%
% Cont @ 1 μM (FLT3(ITD)): 17%
percent of control at 1 µM (CSNK1D): 19%
percent of control binding at 1 µM (PRKCE): 1.4%
remaining binding at 1 µM (TRKB): 3.9%
% Cont @ 1 μM (ULK1): 3.1%
percent of control at 1 µM (CAMK2D): 12%
remaining binding at 1 µM (PKN2): 28%
remaining binding at 1 µM (RIOK1): 27%
remaining binding at 1 µM (CSNK1E): 24%
remaining binding at 1 µM [2]: 1.9%
% Cont @ 1 μM [3]: 7.2%
remaining binding at 1 µM (SBK1): 5.7%
remaining binding at 1 µM (CAMKK1): 1.6%
% Cont @ 1 μM [4]: 3.7%
remaining binding at 1 µM (DYRK1B): 28%
GI50 (BxPC3): < 100 nM
Compound: COc1cc(N2CCCC2=O)ccc1Nc1cc(NC2CCCCC2)c2c(C#N)c[nH]c2n1 [Example 64, 4-(cyclohexylamino)-6-((2-methoxy-4-(2-oxopyrrolidin-1-yl)phenyl)amino)-1H-pyrrolo[2,3-b] pyridine-3-carbonitrile]
